Data from ChEMBL document CHEMBL6087446, “Hypoxia Activated Nitric Oxide Donor Compounds for the Prevention and Treatment of Myocardial Hypoxia-Induced Injury” (J Med Chem, 2025).
Calls of active or inactive are those of the source. The rule behind the calls is not given here.

Experiments:
Mus musculus [1] = assay: Prevention of myocardial hypoxia injury in isoproterenol-induced male C57 mouse myocardial injury model assessed as pathological myocardial change by measuring improvement in disorganized cell arrangement at 8 to 16 mg/kg, ip once daily for 3 consecutive days by hematoxylin and eosin staining based analysis; type: functional, organism-based; conditions: dose 8-16 mg/kg, time 3.0 day
H9c2 [2] = assay: Prevention of hypoxia-induced ROS production in rat H9c2 cells at 1 uM measured after 4 hrs incubation by DCFH-DA method; type: functional, cell-based
H9c2 [3] = assay: Prevention of hypoxia-induced apoptosis in rat H9c2 cells assessed as decrease in early apoptosis by measuring reduced green fluorescence at 10 uM incubated for 4 hrs by confocal microscopy with Annexin V-FITC and propidium iodide (PI) double staining analysis; type: functional, cell-based
Mus musculus [4] = assay: Prevention of myocardial hypoxia injury in isoproterenol-induced male C57 mouse myocardial injury model assessed as increase in NO level in heart tissue at 16 mg/kg, ip once daily for 3 consecutive days; type: functional, organism-based; conditions: time 3.0 day
[5] = Tmax in female Balb/c mouse at 8 mg/kg, ip measured up to 24 hrs by LC-MS/MS analysis; type: ADME, organism-based; conditions: in vivo
H9c2 [6] = assay: Prevention of hypoxia-induced mTORC1 expression in rat H9c2 cells assessed as inhibition of mTORC1 overexpression at 10 uM measured after 4 hrs incubation; type: functional, cell-based
Mus musculus [7] = assay: Prevention of myocardial hypoxia injury in isoproterenol-induced male C57 mouse myocardial injury model assessed as antihypertrophic effect at 16 mg/kg, ip once daily for 3 consecutive days; type: functional, organism-based; conditions: time 3.0 day
Mus musculus [8] = assay: Prevention of myocardial hypoxia injury in isoproterenol-induced male C57 mouse myocardial injury model assessed as decrease in mTORC1 expression at 8 to 16 mg/kg, ip once daily for 3 consecutive days by immunohistochemistry; type: functional, organism-based; conditions: dose 8-16 mg/kg, time 3.0 day
[9] = Toxicity in male C57 mouse assessed as adverse effect at 900 mg/kg, ip measured up to 14 days observation period; type: organism-based; conditions: in vivo, 336 h, time < 14 day
Mus musculus [10] = assay: Prevention of myocardial hypoxia injury in isoproterenol-induced male C57 mouse myocardial injury model assessed as decrease in myocardial size at 8 mg/kg, ip once daily for 3 consecutive days (reference value: 6.47 mm); type: functional; conditions: time 3 day
Mus musculus [11] = assay: Prevention of myocardial hypoxia injury in isoproterenol-induced male C57 mouse myocardial injury model assessed as reduction in cardiac troponin (CK) at 5 mg/kg, ip once daily for 3 consecutive days by immunohistochemistry; type: functional, organism-based; conditions: time 3.0 day
Mus musculus [12] = assay: Prevention of myocardial hypoxia injury in isoproterenol-induced male C57 mouse myocardial injury model assessed as reduction in cardiac troponin (CK) at 8 to 16 mg/kg, ip once daily for 3 consecutive days by immunohistochemistry; type: functional, organism-based; conditions: dose 8-16 mg/kg, time 3.0 day
H9c2 [13] = assay: Induction of NO release in rat H9c2 cells under hypoxia condition by Griess reagent assay relative to control; type: functional, cell-based
[14] = Half life in female Balb/c mouse at 8 mg/kg, ip measured up to 24 hrs by LC-MS/MS analysis; type: ADME, organism-based; conditions: in vivo
Mus musculus [15] = assay: Prevention of myocardial hypoxia injury in isoproterenol-induced male C57 mouse myocardial injury model assessed as heart weight ratio at 16 mg/kg, ip once daily for 3 consecutive days (reference value: 0.60%); type: functional; conditions: time 3 day
Mus musculus [16] = assay: Prevention of myocardial hypoxia injury in isoproterenol-induced male C57 mouse myocardial injury model assessed as pathological myocardial change by heart sections at 8 to 16 mg/kg, ip once daily for 3 consecutive days by hematoxylin and eosin staining based analysis; type: functional, organism-based; conditions: dose 8-16 mg/kg, time 3.0 day
[17] = Toxicity in isoproterenol-induced male C57 mouse assessed as body weight change at 8 mg/kg, ip once daily for 3 consecutive days; type: organism-based; conditions: in vivo, 72 h, time 3 day
[18] = Toxicity in isoproterenol-induced male C57 mouse assessed as body weight change at 5 mg/kg, ip once daily for 3 consecutive days; type: organism-based; conditions: in vivo, 72 h, time 3 day
Mus musculus [19] = assay: Prevention of myocardial hypoxia injury in isoproterenol-induced male C57 mouse myocardial injury model assessed as prevention of lamellar collagen fiber deposition at 8 to 16 mg/kg, ip once daily for 3 consecutive days by Masson staining based analysis; type: functional, organism-based; conditions: dose 8-16 mg/kg, time 3.0 day
[20] = AUC (0 to infinity) in female Balb/c at 8 mg/kg, ip mouse measured up to 24 hrs by LC-MS/MS analysis; type: ADME, organism-based; conditions: in vivo
Mus musculus [21] = assay: Prevention of myocardial hypoxia injury in isoproterenol-induced male C57 mouse myocardial injury model assessed as increase in NO level in myocardial tissue at 8 to 16 mg/kg, IG once daily for 3 consecutive days; type: functional, organism-based; conditions: dose 8-16 mg/kg, time 3.0 day
H9c2 [22] = assay: Induction of NO release in rat H9c2 cells under normoxic condition at 10 uM measured for 4 hrs by Griess reagent assay relative to control; type: functional
H9c2 [23] = assay: Prevention of hypoxia-induced decrease cell viability of rat H9c2 cells at 10 uM by CCK8 assay; type: functional, cell-based
H9c2 [24] = assay: Prevention of hypoxia-induced apoptosis in rat H9c2 cells assessed as decrease in late apoptosis and necrosis by measuring reduced red fluorescence at 10 uM incubated for 4 hrs by confocal microscopy with Annexin V-FITC and propidium iodide (PI) double staining analysis; type: functional, cell-based
Mus musculus [25] = assay: Prevention of myocardial hypoxia injury in isoproterenol-induced male C57 mouse myocardial injury model assessed as reduction in creatine kinase-MB (CK-MB) at 8 to 16 mg/kg, ip once daily for 3 consecutive days by immunohistochemistry; type: functional, organism-based; conditions: dose 8-16 mg/kg, time 3.0 day
Mus musculus [26] = assay: Prevention of myocardial hypoxia injury in isoproterenol-induced male C57 mouse myocardial injury model assessed as pathological myocardial change by clear vascular boundaries at 8 to 16 mg/kg, ip once daily for 3 consecutive days by hematoxylin and eosin staining based analysis; type: functional, organism-based; conditions: dose 8-16 mg/kg, time 3.0 day
H9c2 [27] = assay: Prevention of hypoxia-induced ACE expression in rat H9c2 cells assessed as inhibition of ACE overexpression at 10 uM measured after 4 hrs incubation; type: functional, cell-based
Mus musculus [28] = assay: Prevention of myocardial hypoxia injury in isoproterenol-induced male C57 mouse myocardial injury model assessed as increase in NO level in myocardial tissue at 8 to 16 mg/kg, ip once daily for 3 consecutive days; type: functional, organism-based; conditions: dose 8-16 mg/kg, time 3.0 day
Mus musculus [29] = assay: Prevention of myocardial hypoxia injury in isoproterenol-induced male C57 mouse myocardial injury model assessed as heart weight ratio at 8 mg/kg, ip once daily for 3 consecutive days (reference value: 0.60%); type: functional; conditions: time 3 day
H9c2 [30] = assay: Prevention of hypoxia-induced decrease in ATP level in rat H9c2 cells at 10 uM […] (Rvb =- 19.6 nmol/mg); type: ADME, cell-based; conditions: h9c2, 10 µM
Mus musculus [31] = assay: Prevention of myocardial hypoxia injury in isoproterenol-induced male C57 mouse myocardial injury model assessed as decrease in ACE expression at 8 to 16 mg/kg, ip once daily for 3 consecutive days by immunohistochemistry; type: functional, organism-based; conditions: dose 8-16 mg/kg, time 3.0 day
Mus musculus [32] = assay: Prevention of myocardial hypoxia injury in isoproterenol-induced male C57 mouse myocardial injury model assessed as antihypertrophic effect at 8 mg/kg, ip once daily for 3 consecutive days; type: functional, organism-based; conditions: time 3.0 day
Mus musculus [33] = assay: Prevention of myocardial hypoxia injury in isoproterenol-induced male C57 mouse myocardial injury model assessed as prevention of bundle collagen fiber deposition at 8 to 16 mg/kg, ip once daily for 3 consecutive days by Masson staining based analysis; type: functional, organism-based; conditions: dose 8-16 mg/kg, time 3.0 day
Mus musculus [34] = assay: Prevention of myocardial hypoxia injury in isoproterenol-induced male C57 mouse myocardial injury model assessed as reduction in creatine kinase-MB (CK-MB) at 5 mg/kg, ip once daily for 3 consecutive days by immunohistochemistry; type: functional, organism-based; conditions: time 3.0 day
[35] = Cmax in female Balb/c mouse at 8 mg/kg, ip measured up to 24 hrs by LC-MS/MS analysis; type: ADME, organism-based; conditions: in vivo

In the case of `CN(N=O)c1ccc(OCc2ccc([N+](=O)[O-])c(F)c2)cc1`, the Activity (Mus musculus [1]) is reported as “Active”, the Activity (H9c2 [2]) is reported as “Active” and the Activity (H9c2 [3]) is reported as “Active; Green Fluorescence Intensity Wes Lower Than Ismn Treated Cells”. For the same compound, the Activity (Mus musculus [4]) was “Active”, the Tmax [5] was 2.08 h and the Activity (H9c2 [6]) was “Active”. The Activity (Mus musculus [7]) was “Active”, the Activity (Mus musculus [8]) was “Active” and the Activity [9] was “Non-toxic”. For the same compound, the Activity (Mus musculus [10]) was 2.53 mm, the Activity (Mus musculus [11]) was “Active” and the Activity (Mus musculus [12]) was “Active”. For the same compound, the Activity (H9c2 [13]) was “Dose-dependent-effect”, the half-life [14] was 2.39 h and the Activity (Mus musculus [15]) was 0.51%. For the same compound, the Activity (Mus musculus [16]) was “Active”, the Activity [17] was “Non-toxic” and the Activity [18] was “Non-toxic”. The Activity (Mus musculus [19]) was “Active”, the AUC [20] was 640 ng·h/mL and the Activity (Mus musculus [21]) was “Active”. The Activity (H9c2 [22]) was 20%, the Activity (H9c2 [23]) was “Active; Partially Restores Cell Viability” and the Activity (H9c2 [24]) was “Active; Reduced Red Fluorescence To Certain Extents”. The Activity (Mus musculus [25]) was “Active”, the Activity (Mus musculus [26]) was “Active” and the Activity (H9c2 [27]) was “Active”. The Activity (Mus musculus [28]) was “Active”, the Activity (Mus musculus [29]) was 0.54% and the Activity (H9c2 [30]) was 37.9 nmol/mg. The Activity (Mus musculus [31]) was “Active”, the Activity (Mus musculus [32]) was “Active” and the Activity (Mus musculus [33]) was “Active”. For the same compound, the Activity (Mus musculus [34]) was “Active” and the Cmax [35] was 450 ng/mL.
